# According to patent US7498408B2, “Ryanodine receptor polypeptides” (E. I. du Pont de Nemours and Company, priority 2002, dated 2009):
# How the values were obtained:
# [1] = test system: native cockroach ryanodine receptors (in embryonic neuronal cells); assay: Calcium release assay, calcium imaging in primary embryonic cockroach neuronal cells; type: cell-based, Periplaneta americana
# From the text: Embryonic neuronal cultures of the American cockroach Periplaneta americana were established, with minor modifications, following the method of Beadle and Lees (1988) (in Cell Culture Approaches to Invertebrate Neuroscience, Academic Press, New York, pp 123-127). Briefly, 26-27-day old oothecae were collected, surface-sterilized and cut open along a line one-third of the distance below the dorsal midline. The heads were removed and placed in Schneider's Drosophila medium (Invitrogen Life Technologies™, Carlsbad, Calif.). Using fine forceps 40 brains were individually removed and placed in a small glass vial containing 700 μl of ‘5+4’ medium (‘5+4’ medium contained 5 parts Schneider's Drosophila medium plus 4 parts roach Basal Medium Eagle, with Earle's salts (BME, Sigma™, St. Louis, Mo.). Roach BME (with Earle's salts) contained 5 parts Hepes (1 M), 1 part penicillin/streptomycin and 44 parts BME (with Earle's salts). ‘5+4’ medium was made fresh and sterile filtered (0.2 μm filter) just prior to use). The brains were dissociated by sequential trituration as follows: 1) brains were passed through a standard Pasteur pipette 10 times; 2) the resulting tissue suspension was passed an additional 5 times through a Pasteur pipet with tip flamed to about half of its original diameter; 3) a final 5 passes were performed using a Pasteur pipet with tip flamed to slightly less than half of its original diameter. A repeat pipettor was used to dispense a 5 μl volume of the resulting suspension into the center of each well of a 96-well, glass-bottom plate previously coated with poly-L-lysine (0.2 mg/ml solution). Cells attached to the bottom of the wells during a 50 min incubation at 27-29° C. 150 ul of a 1:1 mixture of Leibovitz's L-15 medium and Yunker's modified Grace's medium was added, and plates were maintained in a humid incubator at 27-29° C. until use. After cells were allowed to attach wells were filled with a 1:1 mixture of Leibovitz's L-15 medium and Yunker's modified Grace's medium (Leibovitz's L-15 and Grace's medium were obtained from Invitrogen Life Technologies™, Carlsbad, Calif. and Yunker's modified Grace's medium was made with Grace's medium modified by addition of 5 mg L-methionine, 10 mg L-alanine, 182 mg MgCl26H20, 1 g Albumin Fraction V, 7 ml Fetal bovine serum, 10 ml Chick embryo extract, 2 ml Penicillin/Streptomycin, and 2 mg 20-hydroxyecdysone (prepared in ethanol prior to addition) to a final volume of 100 ml and sterile filtered (0.2 μm filter)). Cells were maintained in a high humidity incubator at 29° C. until testing.
# Cells were rinsed in standard physiological saline having the following composition (mM): NaCl 190; CaCl2 9; KCl 3.1; probenicid 1; Tris buffer 10; pH 7.2. Cells were then bathed in standard physiological saline containing the calcium sensitive fluoroprobe Fluo4 AM (2 μM) and Pluronic F127 (0.002%) for 45 min. Cells were then rinsed in standard physiological saline for at least 15 min prior to testing. Within the hour prior to testing, standard physiological saline was replaced with standard physiological saline containing the organic cation channel blocker pimozide (10 μM), to inhibit influx of external calcium through voltage-gated calcium channels. The 96-well plate was placed on a PriorTm motorized stage mounted onto a Nikon Diaphot microscope and imaged using a 20× Fluor objective (NA 0.75). Individual wells from the 96-well plate were sequentially excited with light at 495 nm, and the emitted fluorescence at 530 nm was detected using a Hamamatsu ORCA ER digital camera with 2 pixel binning (image size 672×512 pixels).
# Acquisition control, image processing and image analysis were conducted using Universal Imaging Corporation's MetaMorph™ imaging software (Universal Imaging, West Chester, Pa.). A series of 3 “control” images were acquired for each well. Experimental compounds were added followed by acquisition of 4 “experimental” images for each well. […]
# [2] = molecular target: T1, recombinant Drosophila melanogaster ryanodine receptor (expressed in Sf9 cells) (Drosophila melanogaster, UniProt Q24498); type: cell-based
# T1 construct: His tag + attB1 + Lox footprint (N-terminal vector extension; present only if the Cre-Lox vector was the one used) (N); expressed in transfected cells
# From the text: (§1) Several drops of a suspension of recombinant Spodoptera frugiperda cell line, Sf9, transiently expressing insect ryanodine receptors were placed on a poly-L-lysine-coated coverslip and allowed to attach. Cells were then rinsed in physiological saline having the following composition (mM): NaCl 130; KCl 5.4; MgCl2 1.2; CaCl2 1.0; NaHCO3 4.2; NaH2P04 7.3; Glucose 10; Sucrose 63; MES 20; pH 6.3. Cells were then bathed in physiological saline containing the calcium sensitive fluoroprobe, Fura-2 AM (2 μM), and Pluronic F127 (0.002%) for 30 min. Cells were rinsed in standard physiololgical saline for at least 15 min prior to testing. Testing was conducted in standard physiological saline, as the cell lines are devoid of functional voltage-gated calcium channels.
# Cell-attached coverslips were placed in a sealed chamber with physiological saline continuously perfused across the cells using a peristaltic pump. Test compounds solubilized in physiological saline were applied by switching the perfusate source.
# (§2) For studies involving the stable recombinant Spodoptera frugiperda cell line, Sf9, (other cell lines could also be used such as Sf21, S2, etc) expressing an insect ryanodine receptor from Drosophila melanogaster, or Heliothis virescens (alternatively receptors from other species such as Myzus persicae, Peregrinus maidis, Aphis gossypii, etc) were grown in T75 (or other appropriate sized) flasks in supplemented Grace's insect medium. Cells were maintained in an incubator at 22° C. until testing. Cells were suspension-loaded with the calcium sensitive fluoroprobe, Fura-2 AM (1-2 μM) and Pluronic F127 (0.002%) in culture medium for 30 minutes under agitation. Cells were then centrifuged and the pellet resuspended in physiological saline having the following composition (mM): NaCl 130; KCl 5.4; MgCl2 1.2; CaCl2 1.0; NaHCO3 4.2; NaH2P04 7.3; Glucose 10; Sucrose 63; MES 20; pH 6.3 at approximately 150,000-200,000 cells per well (96-well plate). After a 30 minute equilibration period the cell plate was tested using a Molecular Devices' FlexStation™ system with dual wavelength excitation (340 and 380 nm) and fluorescence emission measured at 510 nm. Test and control samples were added using integrated fluidics and the intracellular calcium monitored over a 2 minute period.
# [3] = test system: recombinant Heliothis virescens ryanodine receptor (expressed in Sf9 cells); assay: Calcium release assay in Sf9 cells expressing recombinant Heliothis virescens ryanodine receptor; type: cell-based; details: 72 hr post-transfection; caffeine 10 mM; Cpd 5 3 μM
# From the text: as §1
# (§3) Imaging studies were conducted using a Nikon Diaphot microscope with a 40× oil immersion objective (NA 1.3) Image acquisition and processing was performed using the MetaFluor™ imaging system from Universal Imaging Corporation (West Chester, Pa.) Calcium calibration was carried out using the Grynkiewicz equation with a dissociation constant (Kd) of 145 nM for Fura-2 (Grynkiewicz et al., 1985). Cell-attached coverslips were placed in a sealed chamber with physiological saline continuously perfused across the cells using a peristaltic pump. Test compounds solubilized in physiological saline were applied by switching the perfusate source.
# as §2
# [4] = test system: control Sf9 cells without DNA / wild type Sf9; assay: Calcium response in control or wild-type Sf9 cells lacking recombinant receptor; type: cell-based, Spodoptera frugiperda; details: caffeine 10 mM; Compound 5 3 μM
# From the text: as §1, §3, §2
# [5] = molecular target: cockroach ryanodine receptor (roach femoral muscle membranes) (Periplaneta americana, UniProt Z9HFG3YSF4); assay: Radioligand displacement ([3H]-GN analog Cpd 1) from roach femoral muscle membranes; details: read-out: Displacement IC50 (nM) P. americana; displacement of [3H]-Cpd 1, roach muscle membranes, 60 min at 32° C.
# Chain of cockroach ryanodine receptor (roach femoral muscle membranes) (Z9HFG3YSF4 1-5141): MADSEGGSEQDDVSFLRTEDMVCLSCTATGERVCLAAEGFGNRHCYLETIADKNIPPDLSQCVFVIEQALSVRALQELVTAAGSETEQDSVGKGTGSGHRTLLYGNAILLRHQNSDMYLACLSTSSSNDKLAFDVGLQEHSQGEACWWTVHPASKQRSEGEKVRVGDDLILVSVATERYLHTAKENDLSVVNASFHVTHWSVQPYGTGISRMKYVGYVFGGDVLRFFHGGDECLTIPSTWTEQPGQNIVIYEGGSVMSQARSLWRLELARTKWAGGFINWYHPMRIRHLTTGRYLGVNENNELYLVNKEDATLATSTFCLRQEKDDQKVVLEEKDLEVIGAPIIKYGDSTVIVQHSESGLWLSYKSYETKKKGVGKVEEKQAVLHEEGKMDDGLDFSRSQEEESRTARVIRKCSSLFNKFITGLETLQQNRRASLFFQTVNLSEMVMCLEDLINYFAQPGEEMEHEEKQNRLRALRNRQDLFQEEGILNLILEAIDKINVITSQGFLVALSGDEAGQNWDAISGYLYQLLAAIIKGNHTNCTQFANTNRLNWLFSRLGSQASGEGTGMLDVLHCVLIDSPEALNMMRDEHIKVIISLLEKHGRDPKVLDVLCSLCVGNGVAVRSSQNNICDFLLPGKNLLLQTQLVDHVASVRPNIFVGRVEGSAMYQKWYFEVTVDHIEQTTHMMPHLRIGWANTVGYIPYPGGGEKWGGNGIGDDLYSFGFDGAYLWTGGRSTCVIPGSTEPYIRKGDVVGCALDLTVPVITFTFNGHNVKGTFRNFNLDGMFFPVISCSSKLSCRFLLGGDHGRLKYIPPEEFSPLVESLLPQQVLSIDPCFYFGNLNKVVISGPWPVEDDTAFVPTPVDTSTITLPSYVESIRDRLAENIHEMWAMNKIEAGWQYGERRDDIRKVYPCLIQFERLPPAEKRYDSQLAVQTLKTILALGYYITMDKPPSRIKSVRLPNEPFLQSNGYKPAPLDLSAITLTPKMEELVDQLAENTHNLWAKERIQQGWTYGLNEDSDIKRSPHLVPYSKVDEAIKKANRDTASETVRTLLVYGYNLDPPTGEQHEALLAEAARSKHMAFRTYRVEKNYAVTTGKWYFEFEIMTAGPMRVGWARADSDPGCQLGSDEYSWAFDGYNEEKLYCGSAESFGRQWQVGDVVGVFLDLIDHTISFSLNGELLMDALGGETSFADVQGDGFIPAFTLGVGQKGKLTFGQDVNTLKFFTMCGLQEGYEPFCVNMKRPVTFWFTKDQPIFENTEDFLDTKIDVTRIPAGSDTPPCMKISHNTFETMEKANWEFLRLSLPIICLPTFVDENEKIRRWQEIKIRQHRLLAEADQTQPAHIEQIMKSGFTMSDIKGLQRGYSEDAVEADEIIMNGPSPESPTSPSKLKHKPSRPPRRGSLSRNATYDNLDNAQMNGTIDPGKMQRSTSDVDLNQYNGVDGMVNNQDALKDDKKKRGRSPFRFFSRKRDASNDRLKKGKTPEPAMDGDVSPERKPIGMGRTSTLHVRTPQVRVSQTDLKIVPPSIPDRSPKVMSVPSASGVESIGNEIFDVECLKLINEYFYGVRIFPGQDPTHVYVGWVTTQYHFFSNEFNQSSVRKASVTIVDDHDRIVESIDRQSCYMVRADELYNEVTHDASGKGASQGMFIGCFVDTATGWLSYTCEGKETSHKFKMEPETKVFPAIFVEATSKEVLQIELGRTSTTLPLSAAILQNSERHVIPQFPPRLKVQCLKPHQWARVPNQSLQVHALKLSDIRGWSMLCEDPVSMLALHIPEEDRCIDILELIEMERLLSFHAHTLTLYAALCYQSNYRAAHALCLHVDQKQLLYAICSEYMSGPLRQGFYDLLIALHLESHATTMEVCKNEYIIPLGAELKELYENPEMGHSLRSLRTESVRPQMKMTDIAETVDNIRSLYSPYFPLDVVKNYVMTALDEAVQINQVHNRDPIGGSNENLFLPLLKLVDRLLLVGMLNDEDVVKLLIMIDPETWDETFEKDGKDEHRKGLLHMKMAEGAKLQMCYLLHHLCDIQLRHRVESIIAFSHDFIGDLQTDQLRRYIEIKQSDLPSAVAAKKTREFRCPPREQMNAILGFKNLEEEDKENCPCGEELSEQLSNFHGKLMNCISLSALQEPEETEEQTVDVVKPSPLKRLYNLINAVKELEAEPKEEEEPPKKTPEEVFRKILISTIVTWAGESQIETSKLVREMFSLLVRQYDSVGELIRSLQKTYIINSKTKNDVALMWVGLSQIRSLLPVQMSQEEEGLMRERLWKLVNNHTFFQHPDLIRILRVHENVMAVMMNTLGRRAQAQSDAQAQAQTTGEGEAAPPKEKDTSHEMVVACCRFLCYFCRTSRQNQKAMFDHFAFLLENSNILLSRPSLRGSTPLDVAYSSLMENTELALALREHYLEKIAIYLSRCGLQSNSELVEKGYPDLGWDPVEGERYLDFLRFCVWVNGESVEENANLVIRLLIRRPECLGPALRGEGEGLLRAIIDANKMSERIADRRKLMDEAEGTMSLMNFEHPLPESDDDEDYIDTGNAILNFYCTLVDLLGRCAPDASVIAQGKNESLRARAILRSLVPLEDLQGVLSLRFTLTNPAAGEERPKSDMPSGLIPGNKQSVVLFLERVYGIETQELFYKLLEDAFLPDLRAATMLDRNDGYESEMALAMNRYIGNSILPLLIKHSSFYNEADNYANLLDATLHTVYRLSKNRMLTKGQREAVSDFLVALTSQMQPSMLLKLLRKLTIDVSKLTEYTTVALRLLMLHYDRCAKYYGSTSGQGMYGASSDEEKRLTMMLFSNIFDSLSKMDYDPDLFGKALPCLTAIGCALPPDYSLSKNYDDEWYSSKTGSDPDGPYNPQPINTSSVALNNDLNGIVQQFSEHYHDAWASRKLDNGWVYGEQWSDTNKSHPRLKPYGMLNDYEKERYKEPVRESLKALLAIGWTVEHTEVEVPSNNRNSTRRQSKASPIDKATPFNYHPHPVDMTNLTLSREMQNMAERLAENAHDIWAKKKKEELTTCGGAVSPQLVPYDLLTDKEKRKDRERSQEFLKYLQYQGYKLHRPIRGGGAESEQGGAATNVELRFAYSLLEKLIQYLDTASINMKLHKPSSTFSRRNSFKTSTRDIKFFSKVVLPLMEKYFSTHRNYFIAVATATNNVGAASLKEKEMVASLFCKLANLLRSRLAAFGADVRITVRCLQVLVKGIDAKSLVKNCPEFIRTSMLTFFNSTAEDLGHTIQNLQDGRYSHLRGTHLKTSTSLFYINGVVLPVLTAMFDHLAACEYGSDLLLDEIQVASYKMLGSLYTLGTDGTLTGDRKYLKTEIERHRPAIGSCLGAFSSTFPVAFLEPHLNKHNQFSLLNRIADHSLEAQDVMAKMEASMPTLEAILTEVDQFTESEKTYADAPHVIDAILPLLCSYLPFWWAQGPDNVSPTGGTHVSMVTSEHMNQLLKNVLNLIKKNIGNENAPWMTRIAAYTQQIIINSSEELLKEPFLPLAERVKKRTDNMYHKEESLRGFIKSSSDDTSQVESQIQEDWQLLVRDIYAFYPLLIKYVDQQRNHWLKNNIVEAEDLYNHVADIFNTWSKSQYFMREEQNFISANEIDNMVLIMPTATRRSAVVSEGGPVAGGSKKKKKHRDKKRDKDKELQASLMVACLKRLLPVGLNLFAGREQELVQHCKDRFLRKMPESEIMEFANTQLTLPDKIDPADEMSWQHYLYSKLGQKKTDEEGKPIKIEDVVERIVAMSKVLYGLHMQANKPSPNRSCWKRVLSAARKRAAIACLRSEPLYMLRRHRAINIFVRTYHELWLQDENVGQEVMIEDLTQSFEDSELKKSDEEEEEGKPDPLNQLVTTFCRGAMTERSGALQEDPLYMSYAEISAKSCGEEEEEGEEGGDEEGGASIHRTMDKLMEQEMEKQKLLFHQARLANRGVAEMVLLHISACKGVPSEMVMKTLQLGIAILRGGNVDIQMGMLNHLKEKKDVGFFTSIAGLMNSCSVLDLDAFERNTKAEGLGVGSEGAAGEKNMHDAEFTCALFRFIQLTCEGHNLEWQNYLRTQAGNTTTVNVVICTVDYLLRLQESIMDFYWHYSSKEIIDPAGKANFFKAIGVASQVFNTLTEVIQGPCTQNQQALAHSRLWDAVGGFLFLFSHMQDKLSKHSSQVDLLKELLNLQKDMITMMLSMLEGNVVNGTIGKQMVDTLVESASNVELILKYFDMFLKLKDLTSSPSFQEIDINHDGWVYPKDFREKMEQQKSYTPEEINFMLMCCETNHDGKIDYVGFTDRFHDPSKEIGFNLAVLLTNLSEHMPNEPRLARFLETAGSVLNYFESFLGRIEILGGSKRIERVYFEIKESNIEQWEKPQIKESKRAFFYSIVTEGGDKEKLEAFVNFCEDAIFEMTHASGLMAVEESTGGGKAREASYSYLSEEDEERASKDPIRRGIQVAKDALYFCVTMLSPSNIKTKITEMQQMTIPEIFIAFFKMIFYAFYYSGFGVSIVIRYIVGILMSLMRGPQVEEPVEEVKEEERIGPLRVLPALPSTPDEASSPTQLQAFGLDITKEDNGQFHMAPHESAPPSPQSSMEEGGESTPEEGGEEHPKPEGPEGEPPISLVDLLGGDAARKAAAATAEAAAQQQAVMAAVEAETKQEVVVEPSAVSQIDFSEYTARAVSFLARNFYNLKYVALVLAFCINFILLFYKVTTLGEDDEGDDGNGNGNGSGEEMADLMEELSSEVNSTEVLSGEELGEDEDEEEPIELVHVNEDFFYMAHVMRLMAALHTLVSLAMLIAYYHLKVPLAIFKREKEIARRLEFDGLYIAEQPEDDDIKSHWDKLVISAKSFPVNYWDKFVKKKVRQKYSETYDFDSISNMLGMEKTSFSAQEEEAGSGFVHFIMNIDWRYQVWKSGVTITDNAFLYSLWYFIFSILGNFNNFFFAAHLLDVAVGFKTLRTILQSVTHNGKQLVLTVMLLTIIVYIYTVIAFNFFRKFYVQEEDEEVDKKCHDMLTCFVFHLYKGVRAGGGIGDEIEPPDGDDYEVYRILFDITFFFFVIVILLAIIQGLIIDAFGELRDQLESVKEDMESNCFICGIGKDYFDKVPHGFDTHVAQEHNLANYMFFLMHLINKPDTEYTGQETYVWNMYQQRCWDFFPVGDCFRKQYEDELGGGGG
# Description: Mid and hind legs from 6-9 week old cockroaches were excised and immediately placed in liquid nitrogen. Excised legs could be stored at −80° C. for several months, if necessary, prior to further fractionation. Typically, membrane preparations started with approximately 55 g (wet weight) of excised legs. All subsequent steps were carried out at 4° C.
# The legs were homogenized on ice using a Polytron (Brinkmann Instruments, Westbury, N.Y.) for 2 min at Setting #3. In order to remove all fragments of cuticle, the homogenate was first passed through two layers of cheesecloth and then through one layer of glass wool overlaid on two layers of cheesecloth. On occasion, the cheesecloth clogged with particulates prior to passing all material through. In such cases, fresh cheesecloth (and glass wool) was used for the remainder of the suspension. […] The supernatant was collected and centrifuged for 30 min at 30,000×gmax. The resulting pellet was resuspended in buffer A (1.5 M KCl, 0.3 M sucrose, 0.5 mM CaCl2, 20 mM Tris-HCl, pH 8.0). The membrane suspension was homogenized by hand (about 25 strokes) using a glass-teflon homogenizer. […] Subsequently, the membrane suspension was adjusted to 4 μg protein/μg by addition of buffer A and then stored in 1 ml aliquots at −80° C.
# The assay was begun by addition of 25 μl of roach muscle membranes at 2 μg/μl (prepared by thawing and addition of an equal volume of buffer B), and incubation was carried out for 60 min at 32° C. Assays were carried out in triplicate.
# The compound was allowed to pre-incubate with the membranes for 10 min at 32° C. […] Assays were carried out in triplicate.
# Following incubation, assays were quenched with ice-cold buffer B and immediately filtered on pre-wefted Unifilter 96 GF/B filter microplates using a Unifilter 96 Harvester (PerkinElmer™, Boston, Mass.). Each assay well was then washed 10 times with buffer B, and collected on the same filter microplate. The filter microplates were then placed in a vacuum oven at 32° C. for 3 h, following which 50 μl of Microscint 0 (PerkinElmer™, Boston, Mass.) was added to each well. Plates were then heat sealed and counted using a Topcount microplate scintillation counter (PerkinElmer™, Boston, Mass.).
smiles,measurement,setting,value
"Cc1cccc(C(=O)NC(C)C)c1NC(=O)c1cc(C(F)(F)F)nn1-c1ncccc1Cl [Cpd 5, 1-(3-Chloro-2-pyridinyl)-N-[2-methyl-6-[[(1-methylethyl)amino]carbonyl]phenyl]-3-(trifluoromethyl)-1H-pyrazole-5-carboxamide]",Calcium Release Threshold (nM) P. americana,[1],<300 nM
same,Calcium Release Threshold (nM) D. melanogaster,[2],<300 nM
same,"cytosolic [Ca2+], Sf9 transiently expressing H. virescens ryanodine receptor (FIG. 4)",[3],increase in cytosolic [Ca^2+]
same,calcium responses in control cells without DNA (FIG. 4),[4],No significant calcium responses
same,IC50,[5],< 300 nM
